This passage reports EC50 results from patent publication US12091423B2, “Substituted 3,4,12,12a-tetrahydro-1H-[1,4]oxazino[3,4-c]pyrido[2,1-f][1,2,4]triazine-6,8-dione, pharmaceutical composition, method for the production and use thereof” (VIRIOM, INC., priority 2019, dated 2024).

The subject of this experiment is influenza A/Perth/265/2009 (H1N1pdm09) (H275Y). Type of experiment: cell-based, influenza A virus.

The term EC50 denotes the concentration needed to bring the measured effect to its halfway point. A high value points to weaker potency.

`O=C1c2c(O)c(=O)ccn2N([C@@H]2c3ccc(F)c(F)c3CSc3ccsc32)[C@@H]2COCCN12` [1.3.2, (12aR)-7-hydroxy-12-[(10R)-6,7-difluoro-5,10-dihydrothieno[3,2-c][2]benzothiepin-10-yl]-3,4,12,12a-tetrahydro-1H-[1,4]oxazino[3,4-c]pyrido[2,1-f][1,2,4]triazine-6,8-dione] displayed an EC50 of 0.8 nM.
